Source: patent publication US7700609B2, “Compositions useful as inhibitors of protein kinases” (Vertex Pharmaceuticals Incorporated, priority 2003, dated 2010)

What follows are molecules tested against T1, Itk (Homo sapiens, UniProt Q08881) (assay: Itk inhibition assay: spectrophotometric coupled enzyme (Method C)). Conditions: 100 μM ATP, read-out: Ki in the standard coupled enzyme assay (Method C).
T1 sequence (Q08881 1-620): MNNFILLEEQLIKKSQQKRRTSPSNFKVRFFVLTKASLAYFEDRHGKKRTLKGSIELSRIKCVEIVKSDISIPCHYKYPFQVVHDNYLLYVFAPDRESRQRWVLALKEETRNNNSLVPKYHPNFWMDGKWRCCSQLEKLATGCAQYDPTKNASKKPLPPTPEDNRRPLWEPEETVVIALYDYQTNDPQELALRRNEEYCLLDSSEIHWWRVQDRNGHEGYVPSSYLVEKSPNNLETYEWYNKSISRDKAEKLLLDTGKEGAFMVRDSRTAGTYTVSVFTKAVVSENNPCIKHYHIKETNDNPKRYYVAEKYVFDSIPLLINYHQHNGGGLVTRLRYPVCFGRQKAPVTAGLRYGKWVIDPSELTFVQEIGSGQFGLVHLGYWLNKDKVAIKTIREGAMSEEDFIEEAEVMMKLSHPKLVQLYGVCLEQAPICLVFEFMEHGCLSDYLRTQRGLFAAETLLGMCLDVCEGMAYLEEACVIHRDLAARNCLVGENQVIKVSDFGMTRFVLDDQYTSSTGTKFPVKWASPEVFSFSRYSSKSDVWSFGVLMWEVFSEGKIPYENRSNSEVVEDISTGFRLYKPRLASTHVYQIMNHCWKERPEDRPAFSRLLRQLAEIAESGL
Type: biochemical
Method: The compounds of the present invention were evaluated as inhibitors of human Itk kinase using either a radioactivity-based, spectrophotometric or alphascreen assay.
Compounds were screened for their ability to inhibit Itk using a standard coupled enzyme assay (Fox et al., Protein Sci., (1998) 7, 2249).
Assays were carried out in a mixture of 20 mM MOPS (pH 7.0), 10 mM MgCl2, 0.1% BSA, 1 mM DTT, 2.5 mM phosphoenolpyruvate, 300 μM NADH, 30 μg/ml pyruvate kinase and 10 μg/ml lactate dehydrogenase. Final substrate concentrations in the assay were 100 μM ATP (Sigma Chemicals) and 3 μM peptide (Biotinylated SAM68 Δ332-443). Assays were carried out at 25° C. and in the presence of 10 nM Itk.
An assay stock buffer solution was prepared containing all of the reagents listed above, with the exception of ATP and the test compound of interest. 60 μl of the stock solution was placed in a 96 well plate followed by addition of 2 μl of DMSO stock containing serial dilutions of the test compound (typically starting from a final concentration of 15 μM). The plate was preincubated for 10 minutes at 25° C. and the reaction initiated by addition of 5 μl of ATP. Initial reaction rates were determined with a Molecular Devices SpectraMax Plus plate reader over a 10 minute time course. IC50 and Ki data were calculated from non-linear regression analysis using the Prism software package (GraphPad Prism version 3.0cx for Macintosh, GraphPad Software, San Diego Calif., USA).

Ki, < 1000 nM:
O=C(c1cc2c(ccc3cnc(Nc4cccc(F)c4)nc32)s1)N1CCOCC1 [Compound V-61]
O=C(c1cc2c(ccc3cnc(NCCc4ccc(O)cc4)nc32)s1)N1CCNCC1 [Compound V-182]
NC1CCN(C(=O)c2cc3c(ccc4cnc(Nc5cccc(Cc6ccccc6)c5)nc43)s2)C1 (centres unmarked) [Compound V-88]
CC1CC(C)CN(CCC(=O)Nc2cccc(Nc3ncc4ccc5sc(C(=O)N6CCOCC6)cc5c4n3)c2)C1 (centres unmarked) [Compound V-78]
CC(C)(C)c1cccc(Nc2ncc3ccc4sc(C(=O)NCC5CCNC5)cc4c3n2)c1 (centres unmarked) [Compound V-108]
CN(CCO)C(=O)c1cc2c(ccc3cnc(Nc4cccc(S(C)(=O)=O)c4)nc32)s1 [Compound V-152]
CS(=O)(=O)c1cccc(Nc2ncc3ccc4sc(C(=O)N5CCC(O)CC5)cc4c3n2)c1 [Compound V-154]
CS(=O)(=O)c1cccc(Nc2ncc3ccc4sc(C(=O)N5CCC[C@H]5CO)cc4c3n2)c1 [Compound V-142]
O=C(c1cc2c(ccc3cnc(Nc4ccc(N5CCOCC5)cc4)nc32)s1)N1CCNCC1 [Compound V-98]
CS(=O)(=O)c1cccc(Nc2ncc3ccc4sc(C(=O)N5CCC(O)C5)cc4c3n2)c1 (centres unmarked) [Compound V-156]
NC1CCN(C(=O)c2cc3c(ccc4cnc(Nc5cccc(-c6ccccc6)c5)nc43)s2)C1 (centres unmarked) [Compound V-73]
Cc1ccccc1-c1cccc(Nc2ncc3ccc4sc(C(=O)N5CCNCC5)cc4c3n2)c1 [Compound V-90]
CN1CCN(C(=O)c2ccc(Nc3ncc4ccc5sc(C(=O)N6CCNCC6)cc5c4n3)cc2)CC1 [Compound V-122]
O=C(CCN1CCCCC1)Nc1cccc(Nc2ncc3ccc4sc(C(=O)N5CCOCC5)cc4c3n2)c1 [Compound V-67]
CS(=O)(=O)c1cccc(Nc2ncc3ccc4sc(C(=O)NC5CCOCC5)cc4c3n2)c1 [Compound V-150]
CN(C)C(=O)c1cc2c(ccc3cnc(Nc4cccc(S(C)(=O)=O)c4)nc32)s1 [Compound V-141]
O=C(c1cc2c(ccc3cnc(NCCc4c[nH]cn4)nc32)s1)N1CCNCC1 [Compound V-178]
CS(=O)(=O)c1cccc(Nc2ncc3ccc4sc(C(=O)NCCO)cc4c3n2)c1 [Compound V-133]
O=C(c1cc2c(ccc3cnc(Nc4cccnc4)nc32)s1)N1CCNCC1 [Compound V-117]
O=C(CCN1CCOCC1)Nc1cccc(Nc2ncc3ccc4sc(C(=O)N5CCOCC5)cc4c3n2)c1 [Compound V-69]
Cc1cccc(C)c1-c1cccc(Nc2ncc3ccc4sc(C(=O)N5CCNCC5)cc4c3n2)c1 [Compound V-92]
CC(=O)N1CCN(C(=O)c2cc3c(ccc4cnc(Nc5cccc(C(C)(C)C)c5)nc43)s2)CC1 [Compound V-105]
CC(C)(C)c1cccc(Nc2ncc3ccc4sc(C(=O)NCC5CCNCC5)cc4c3n2)c1 [Compound V-107]
CC(=O)NC1CCN(C(=O)c2cc3c(ccc4cnc(Nc5cccc(S(C)(=O)=O)c5)nc43)s2)C1 (centres unmarked) [Compound V-148]
Nc1ccc(CCNc2ncc3ccc4sc(C(=O)N5CCNCC5)cc4c3n2)cc1 [Compound V-165]
O=C(c1cc2c(ccc3cnc(Nc4cccc(Br)c4)nc32)s1)N1CCNCC1 [Compound V-89]
CN1CCN(C(=O)c2cc3c(ccc4cnc(Nc5cccc(-c6ccccc6)c5)nc43)s2)CC1 [Compound V-59]
CC(=O)N1CCc2ccc(Nc3ncc4ccc5sc(C(=O)N6CCNCC6)cc5c4n3)cc21 [Compound V-166]
C[C@@H]1CN(C(=O)c2cc3c(ccc4cnc(Nc5cccc(S(C)(=O)=O)c5)nc43)s2)C[C@H](C)O1 [Compound V-143]
CS(=O)(=O)c1cccc(Nc2ncc3ccc4sc(C(=O)N5CCC(C(N)=O)CC5)cc4c3n2)c1 [Compound V-144]
NC1CCN(C(=O)c2cc3c(ccc4cnc(Nc5cccc(Oc6ccccc6)c5)nc43)s2)C1 (centres unmarked) [Compound V-85]
CS(=O)(=O)c1cccc(Nc2ncc3ccc4sc(C(=O)NCCN5CCNC5=O)cc4c3n2)c1 [Compound V-145]
COCCNC(=O)c1cc2c(ccc3cnc(Nc4cccc(S(C)(=O)=O)c4)nc32)s1 [Compound V-134]
O=C(c1cc2c(ccc3cnc(Nc4cccc(-c5ccccc5)c4)nc32)s1)N1CCNCC1 [Compound V-80]
O=C(c1ccc(Nc2ncc3ccc4sc(C(=O)N5CCNCC5)cc4c3n2)cc1)N1CCOCC1 [Compound V-120]
O=C(c1cc2c(ccc3cnc(Nc4cccc(N5CCOCC5)c4)nc32)s1)N1CCNCC1 [Compound V-112]
CS(=O)(=O)c1cccc(Nc2ncc3ccc4sc(C(=O)N5CCC(N)C5)cc4c3n2)c1 (centres unmarked) [Compound V-101]
COCCN(C)C(=O)c1cc2c(ccc3cnc(Nc4cccc(S(C)(=O)=O)c4)nc32)s1 [Compound V-139]
CC(=O)N1CCCN(C(=O)c2cc3c(ccc4cnc(Nc5cccc(S(C)(=O)=O)c5)nc43)s2)CC1 [Compound V-138]
O=C(c1cc2c(ccc3cnc(NCCc4ccccn4)nc32)s1)N1CCNCC1 [Compound V-179]
O=C(c1cc2c(ccc3cnc(NCCc4cccc(Cl)c4)nc32)s1)N1CCNCC1 [Compound V-167]
CC(C)Oc1cccc(Nc2ncc3ccc4sc(C(=O)N5CCC(N)C5)cc4c3n2)c1 (centres unmarked) [Compound V-103]
CC(C)(C)c1cccc(Nc2ncc3ccc4sc(C(=O)N5CC[C@@H](N)C5)cc4c3n2)c1 [Compound V-111]
CS(=O)(=O)c1cccc(Nc2ncc3ccc4sc(C(=O)N5CCCNCC5)cc4c3n2)c1 [Compound V-136]
O=C(c1cc2c(ccc3cnc(NCCCc4ccccc4)nc32)s1)N1CCNCC1 [Compound V-170]
CN(C)CCC(=O)Nc1cccc(Nc2ncc3ccc4sc(C(=O)N5CCOCC5)cc4c3n2)c1 [Compound V-71]
CN1CCN(C(=O)c2cc3c(ccc4cnc(Nc5cccc(C(C)(C)C)c5)nc43)s2)CC1 [Compound V-56]
CC(=O)N1CCC(CNC(=O)c2cc3c(ccc4cnc(Nc5cccc(C(C)(C)C)c5)nc43)s2)C1 (centres unmarked) [Compound V-119]
COC[C@H](C)NC(=O)c1cc2c(ccc3cnc(Nc4cccc(S(C)(=O)=O)c4)nc32)s1 [Compound V-153]
CCN(CCN(C)C)C(=O)c1cc2c(ccc3cnc(Nc4cccc(S(C)(=O)=O)c4)nc32)s1 [Compound V-157]
CC(C)(C)c1cccc(Nc2ncc3ccc4sc(C(=O)N5CC[C@H](N)C5)cc4c3n2)c1 [Compound V-110]
CC(C)(C)c1cccc(Nc2ncc3ccc4sc(C(=O)N5CCC(N)C5)cc4c3n2)c1 (centres unmarked) [Compound V-72]
O=C(c1cc2c(ccc3cnc(NC4Cc5ccccc5C4)nc32)s1)N1CCNCC1 [Compound V-172]
CC(C)(C)OC(=O)NC1CCN(C(=O)c2cc3c(ccc4cnc(Nc5cccc(F)c5)nc43)s2)C1 (centres unmarked) [Compound V-63]
CN1CCN(c2cccc(Nc3ncc4ccc5sc(C(=O)N6CCNCC6)cc5c4n3)c2)CC1 [Compound V-114]
CC(C)Oc1cccc(Nc2ncc3ccc4sc(C(=O)N5CCNCC5)cc4c3n2)c1 [Compound V-102]
CC(C)(C)c1cccc(Nc2ncc3ccc4sc(C(=O)N5CCOCC5)cc4c3n2)c1 [Compound V-55]
CC(C)N(C)C(=O)c1cc2c(ccc3cnc(Nc4cccc(S(C)(=O)=O)c4)nc32)s1 [Compound V-140]
CC(C)(C)c1cccc(Nc2ncc3ccc4sc(C(=O)N5CCNCC5)cc4c3n2)c1 [Compound V-79]
O=C(c1cc2c(ccc3cnc(N[C@H]4C[C@@H]4c4ccccc4)nc32)s1)N1CCNCC1 [Compound V-127]
CS(=O)(=O)c1cccc(Nc2ncc3ccc4sc(C(=O)NCc5ccccc5)cc4c3n2)c1 [Compound V-129]
CC(C)(C)c1cccc(Nc2ncc3ccc4sc(C(=O)N5CCCNCC5)cc4c3n2)c1 [Compound V-109]
